pIC50: −log10 of the molar value. Structures can show the parent of a compound that is named as a salt.

The assay concerns the target T1, human Glucose-dependent Insulinotropic Polypeptide Receptor (hGIPR) (Homo sapiens, UniProt P48546).
T1 sequence (P48546 22-466): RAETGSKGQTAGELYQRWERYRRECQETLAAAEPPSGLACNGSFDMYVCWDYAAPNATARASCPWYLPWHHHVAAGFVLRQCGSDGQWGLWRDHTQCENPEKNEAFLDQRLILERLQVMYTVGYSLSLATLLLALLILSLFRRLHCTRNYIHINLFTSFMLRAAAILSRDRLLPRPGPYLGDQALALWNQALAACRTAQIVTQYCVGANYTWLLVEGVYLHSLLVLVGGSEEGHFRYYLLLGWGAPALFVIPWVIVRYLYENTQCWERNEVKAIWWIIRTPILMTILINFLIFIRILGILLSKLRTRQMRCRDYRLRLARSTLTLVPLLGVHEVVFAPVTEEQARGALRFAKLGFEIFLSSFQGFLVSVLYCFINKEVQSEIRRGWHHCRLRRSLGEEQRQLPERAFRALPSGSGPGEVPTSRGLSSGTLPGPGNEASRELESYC
In words: Functional in vitro GIPR antagonist potency assay (cAMP HTRF, CHO-K1 cells stably expressing hGIPR, hGIP stimulation at about EC80). Conditions: geometric mean, hGIP at estimated EC80, examples marked ^2: overall geometric mean of multiple forms (including salts) tested. In kind it is cell-based. Summed up: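 CHO-K1 cells expressing hGIPR (2,000 per well) in HBSS/HEPES/0.1% BSA with 200 μM IBMX were preincubated 2 h at 37 °C with an 11-point compound series (0.5% DMSO). hGIP at about EC80 was then added for 30 min, and cAMP was read by HTRF (665/620 nm). Data were normalized between hGIP alone and full antagonism by a reference antagonist at 80 μM.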
For orientation: pIC50 means −log10 of the IC50, conventionally taken in molar units. Regarding `CC(C)(C)c1ccc(CNC(=O)N2CCC[C@@H]2C(=O)Nc2ccc(-c3ccc(C(=O)O)cc3)cc2)cc1` [Example 125, 4′-[(1-{[(4-tert-butylphenyl)methyl]carbamoyl}-D-prolyl)amino][1,1′-biphenyl]-4-carboxylic acid], the pIC50 is 7.72.
For the compound `O=C(O)c1ccc(-c2ccc(NC(=O)[C@H]3CCCN3C(=O)NCc3ccc(C(F)(F)F)c(F)c3)cc2)cc1` [Example 126, 4′-{[1-({[3-fluoro-4-(trifluoromethyl)phenyl]methyl}carbamoyl)-D-prolyl]amino}[1,1′-biphenyl]-4-carboxylic acid], the pIC50 is 8.18.
The same measure for `CC(C)c1ccc(CNC(=O)N2CCC[C@@H]2C(=O)Nc2ccc(-c3ccc(C(=O)O)cc3)cc2)c(F)c1` [Example 127, 4′-{[1-({[2-fluoro-4-(propan-2-yl)phenyl]methyl}carbamoyl)-D-prolyl]amino}[1,1′-biphenyl]-4-carboxylic acid]: 7.16.
For `O=C(O)c1ccc(-c2ccc(NC(=O)[C@H]3CCCN3C(=O)Nc3cc(F)c(C(F)(F)F)c(F)c3)cc2)cc1` [Example 128, 4′-[(1-{[3,5-difluoro-4-(trifluoromethyl)phenyl]carbamoyl}-D-prolyl)amino][1,1′-biphenyl]-4-carboxylic acid], the pIC50 is 8.03.
The same measure for `Cc1ccc(CNC(=O)N2CCC[C@@H]2C(=O)Nc2ccc(-c3ccc(C(=O)O)cc3)cc2)cc1F` [Example 129, 4′-[(1-{[(3-fluoro-4-methylphenyl)methyl]carbamoyl}-D-prolyl)amino][1,1′-biphenyl]-4-carboxylic acid]: 7.85.
For `O=C(O)c1ccc(-c2ccc(NC(=O)[C@H]3CCCN3C(=O)NCc3ccc(C(F)(F)F)c(Cl)c3)cc2)cc1` [Example 130, 4′-{[1-({[3-chloro-4-(trifluoromethyl)phenyl]methyl}carbamoyl)-D-prolyl]amino}[1,1′-biphenyl]-4-carboxylic acid], the pIC50 is 7.96.
Turning to `O=C(O)c1ccc(-c2ccc(NC(=O)[C@H]3CCCN3C(=O)NCc3ccc(C(F)(F)F)cc3F)cc2)cc1` [Example 131, 4′-{[1-({[2-fluoro-4-(trifluoromethyl)phenyl]methyl}carbamoyl)-D-prolyl]amino}[1,1′-biphenyl]-4-carboxylic acid], the pIC50 is 6.85.
For `O=C(O)c1ccc(-c2ccc(NC(=O)[C@H]3CCCN3C(=O)NCc3ccc(Cl)cc3F)cc2)cc1` [Example 132, 4′-[(1-{[(4-chloro-2-fluorophenyl)methyl]carbamoyl}-D-prolyl)amino][1,1′-biphenyl]-4-carboxylic acid], the pIC50 was 7.11.
As for `O=C(O)c1ccc(-c2ccc(NC(=O)[C@H]3CCCN3C(=O)NCc3c(F)cc(Cl)cc3F)cc2)cc1` [Example 133, 4′-[(1-{[(4-chloro-2,6-difluorophenyl)methyl]carbamoyl}-D-prolyl)amino][1,1′-biphenyl]-4-carboxylic acid], the pIC50 is 6.74.
With `COc1cc(C(F)(F)F)ccc1NC(=O)N1CCC[C@@H]1C(=O)Nc1ccc(-c2ccc(C(=O)O)cc2)cc1` [Example 134, 4′-[(1-{[2-methoxy-4-(trifluoromethyl)phenyl]carbamoyl}-D-prolyl)amino][1,1′-biphenyl]-4-carboxylic acid], the pIC50 was 6.85.
The same measure for `CC(C)c1ccc(NC(=O)N2CCC[C@@H]2C(=O)Nc2ccc(-c3ccc(C(=O)O)cc3)cc2)c(Cl)c1` [Example 135, 4′-[(1-{[2-chloro-4-(propan-2-yl)phenyl]carbamoyl}-D-prolyl)amino][1,1′-biphenyl]-4-carboxylic acid]: 7.28; for `O=C(O)c1ccc(-c2ccc(NC(=O)[C@H]3CCCN3C(=O)NCc3ccc(C4CC4)cc3)cc2)cc1` [Example 136, 4′-[(1-{[(4-cyclopropylphenyl)methyl]carbamoyl}-D-prolyl)amino][1,1′-biphenyl]-4-carboxylic acid]: 8.11.
For the compound `CC(C)Cc1ccc(CNC(=O)N2CCC[C@@H]2C(=O)Nc2ccc(-c3ccc(C(=O)O)cc3)cc2)cc1` [Example 137, 4′-{[1-{{[4-(2-methylpropyl)phenyl]methyl}carbamoyl)-D-prolyl]amino}[1,1′-biphenyl]-4-carboxylic acid], the pIC50 was 8.01.
For `O=C(O)c1ccc(-c2ccc(NC(=O)[C@H]3CCCN3C(=O)NCc3cc(F)c(Cl)cc3F)cc2)cc1` [Example 138, 4′-[(1-{[(4-chloro-2,5-difluorophenyl)methyl]carbamoyl}-D-prolyl)amino][1,1′-biphenyl]-4-carboxylic acid] the value was 7.38; for `O=C(O)c1ccc(-c2ccc(NC(=O)[C@H]3CCCN3C(=O)NCc3ccc(C(F)(F)F)cc3Cl)cc2)cc1` [Example 139, 4′-{[1-({[2-chloro-4-(trifluoromethyl)phenyl]methyl}carbamoyl)-D-prolyl]amino}[1,1′-biphenyl]-4-carboxylic acid], 7.03; for `O=C(O)c1ccc(-c2ccc(NC(=O)[C@H]3CCCN3C(=O)Nc3ccc(C4CC4)cc3F)cc2)cc1` [Example 140, 4′-({1-[(4-cyclopropyl-2-fluorophenyl)carbamoyl]-D-prolyl}amino)[1,1′-biphenyl]-4-carboxylic acid], 7.17.
For `O=C(O)c1ccc(-c2ccc(NC(=O)[C@H]3CCCN3C(=O)NCc3ccc(C(F)F)cc3)cc2)cc1` [Example 141, 4′-{[1-({[4-(difluoromethyl)phenyl]methyl}carbamoyl)-D-prolyl]amino}[1,1′-biphenyl]-4-carboxylic acid] the value was 7.01.
Regarding `Cc1cc(C2CC2)ccc1NC(=O)N1CCC[C@@H]1C(=O)Nc1ccc(-c2ccc(C(=O)O)cc2)cc1` [Example 142, 4′-({1-[(4-cyclopropyl-2-methylphenyl)carbamoyl]-D-prolyl}amino)[1,1′-biphenyl]-4-carboxylic acid], the pIC50 is 6.89.
The same measure for `COc1cc(NC(=O)N2CCC[C@@H]2C(=O)Nc2ccc(-c3ccc(C(=O)O)cc3)cc2)ccc1C(F)(F)F` [Example 143, 4′-[(1-{[3-methoxy-4-(trifluoromethyl)phenyl]carbamoyl}-D-prolyl)amino][1,1′-biphenyl]-4-carboxylic acid]: 7.46; for `Cc1cc(NC(=O)N2CCC[C@@H]2C(=O)Nc2ccc(-c3ccc(C(=O)O)cc3)cc2)ccc1C1CC1` [Example 144, 4′-({1-[(4-cyclopropyl-3-methylphenyl)carbamoyl]-D-prolyl}amino)[1,1′-biphenyl]-4-carboxylic acid]: 8.21.
For the compound `Cc1cc(NC(=O)N2CCC[C@@H]2C(=O)Nc2ccc(-c3ccc(C(=O)O)cc3)cc2)cnc1C(C)C` [Example 145, 4′-[(1-{[5-methyl-6-(propan-2-yl)pyridin-3-yl]carbamoyl}-D-prolyl)amino][1,1′-biphenyl]-4-carboxylic acid, trifluoroacetate salt], the pIC50 was 7.15.
For `Cc1cc(NC(=O)N2CCC[C@@H]2C(=O)Nc2ccc(-c3ccc(C(=O)O)cc3)cc2)ncc1C(C)C` [Example 146, 4′-[(1-{[4-methyl-5-(propan-2-yl)pyridin-2-yl]carbamoyl}-D-prolyl)amino][1,1′-biphenyl]-4-carboxylic acid, trifluoroacetate salt] the value was 8.01; for `CC(c1ccc(NC(=O)N2CCC[C@@H]2C(=O)Nc2ccc(-c3ccc(C(=O)O)cc3)cc2)cc1)C(F)(F)F` (stereo partly drawn) [Example 147, 4′-[(1-{[4-(1,1,1-trifluoropropan-2-yl)phenyl]carbamoyl}-D-prolyl)amino][1,1′-biphenyl]-4-carboxylic acid], 7.89.
With `CC(C)c1ccc(NC(=O)N2CCC[C@@H]2C(=O)Nc2ccc(-c3cccc(C(N)=O)c3)cc2)cc1` [Example 148, (2R)-N^2-(3′-carbamoyl[1,1′-biphenyl]-4-yl)-N^1-[4-(propan-2-yl)phenyl]pyrrolidine-1,2-dicarboxamide], the pIC50 was 6.62.
The same measure for `O=C(O)c1ccc(-c2ccc(NC(=O)[C@H]3CCCN3C(=O)Nc3ccc(C4CC4)c(F)c3)cc2)cc1` [Example 149, 4′-({1-[(4-cyclopropyl-3-fluorophenyl)carbamoyl]-D-prolyl}amino)[1,1′-biphenyl]-4-carboxylic acid]: 7.68.
Consider `Cc1cc(NC(=O)[C@H]2CCCN2C(=O)Nc2ccc(C(C)C)cc2)cnc1-c1ccc(C(=O)O)cc1` [Example 150, 4-{3-methyl-5-[(1-{[4-(propan-2-yl)phenyl]carbamoyl}-D-prolyl)amino]pyridin-2-yl}benzoic acid], for which the pIC50 is 7.07.
For the compound `COc1cc(C(=O)O)ccc1-c1ccc(NC(=O)[C@H]2CCCN2C(=O)Nc2ccc(C(C)C)cc2)nc1` [Example 151, 3-methoxy-4-{6-[(1-{[4-(propan-2-yl)phenyl]carbamoyl}-D-prolyl)amino]pyridin-3-yl}benzoic acid], the pIC50 is 6.96.
`CC(C)c1ccc(NC(=O)N2CCC[C@@H]2C(=O)Nc2ccc3cc(C(=O)O)ccc3c2)cc1F` [Example 152, 6-[(1-{[3-fluoro-4-(propan-2-yl)phenyl]carbamoyl}-D-prolyl)amino]naphthalene-2-carboxylic acid]: the pIC50 was 7.36.

The values are drawn from patent US20240366598A1, “GLUCOSE-DEPENDENT INSULINOTROPIC POLYPEPTIDE RECEPTOR ANTAGONISTS AND USES THEREOF” (Pfizer Inc., priority 2023, published 2024).
